Activity calls are given as the source filed them. No rule for the calls is given here.
biological target: Mu-type opioid receptor (Homo sapiens) (UniProt P35372); test: activators of OPRM1-OPRD1 heterodimerization, late-stage follow-up, cell-based, luminescence, dose response, set 2 (AID 651762); conditions: cell-based heterodimer formation, luminescence complementation
Sequence (P35372 whole entry, looked up): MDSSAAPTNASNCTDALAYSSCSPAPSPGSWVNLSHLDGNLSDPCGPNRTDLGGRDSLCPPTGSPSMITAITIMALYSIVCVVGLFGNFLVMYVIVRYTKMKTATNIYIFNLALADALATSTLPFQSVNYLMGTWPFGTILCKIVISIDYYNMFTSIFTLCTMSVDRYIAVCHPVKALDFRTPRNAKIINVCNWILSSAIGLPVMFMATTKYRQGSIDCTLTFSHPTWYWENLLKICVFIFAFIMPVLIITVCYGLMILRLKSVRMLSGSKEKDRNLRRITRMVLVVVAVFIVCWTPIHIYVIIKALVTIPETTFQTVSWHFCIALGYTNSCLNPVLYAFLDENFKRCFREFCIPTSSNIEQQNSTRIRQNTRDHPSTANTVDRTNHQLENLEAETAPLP

With `CCOC(=O)C1(CCOC)CCCN(Cc2ccc(NC(C)=O)cc2)C1` (stereo not drawn) as the molecule, how does the EC50 read?
Its EC50 is > 50 µM (inactive).

How did the EC50 turn out when `CCOC(=O)C1CCN(Cc2ccc(N(C)C)cc2)CC1` was run?
The EC50 was > 50 µM (inactive).

Which EC50 does the source give for `CCOC(=O)C1(CC2CC2)CCN(Cc2ccc(NC(C)=O)cc2)CC1` here?
Its EC50 is > 50 µM (inactive).

`CCOC(=O)C1(Cc2ccccc2Cl)CCN(Cc2ccc(NC(C)=O)cc2)CC1` was tested. Which EC50 did it give?
The EC50 was 0.394 µM.

For `CCOC(=O)C1(CCc2ccccc2)CCN(Cc2c(O)cccc2OC)CC1`, which EC50 is on record?
Its EC50 is 0.605 µM.

Which EC50 does the source give for `CCOC(=O)C1(CCc2ccccc2)CCN(C(=O)Nc2ccc(C)cc2C)CC1` here?
The EC50 was > 50 µM (inactive).

With `CC(=O)Nc1ccc(CN2CCCC(CO)(CCc3ccccc3)C2)cc1` (stereo not drawn) as the molecule, how does the EC50 read?
The EC50 was 5.16 µM.

Which EC50 does the source give for `CCOC(=O)C1(CCc2ccccc2)CCCN(Cc2ccc(N3CCNC3=O)cc2)C1` (stereo not drawn) here?
Its EC50 is > 50 µM (inactive).

`C=Cc1ccc(C(=O)N2CCC(CCc3ccccc3)(C(=O)OCC)CC2)cc1` was tested. Which EC50 did it give?
Its EC50 is > 50 µM (inactive).

Which EC50 does the source give for `CCOC(=O)C1(Cc2ccc(OC)cc2)CCN(C(=O)c2ccc(N(C)C)cc2)CC1` here?
The EC50 was > 50 µM (inactive).

Which EC50 does the source give for `CCOC(=O)C1(CCOc2ccccc2)CCCN(Cc2ccc(NC(C)=O)cc2)C1` (stereo not drawn) here?
The EC50 was > 50 µM (inactive).

For `CCOC(=O)C1CCN(C(=O)c2ccc(N(C)C)cc2)CC1`, which EC50 is on record?
The EC50 was > 50 µM (inactive).

How did the EC50 turn out when `CCOC(=O)C1(CCOC)CCN(Cc2ccc(N(C)c3ccccc3)cc2)CC1` was run?
The EC50 was > 50 µM (inactive).

`CCOC(=O)C1(CCc2ccccc2)CCN(Cc2ccc(O)cc2)CC1` was tested. Which EC50 did it give?
The EC50 was > 50 µM (inactive).

How did the EC50 turn out when `CCOC(=O)C1(CCOC)CCN(Cc2ccc(NC(C)=O)cc2)CC1` was run?
Its EC50 is > 50 µM (inactive).

`CCOC(=O)C1(Cc2ccccc2C)CCCN(Cc2ccc(NC(C)=O)cc2)C1` (stereo not drawn) was tested. Which EC50 did it give?
Its EC50 is > 50 µM (inactive).

With `CCOC(=O)C1(CCc2ccccc2)CCN(Cc2ccc(C#CC(C)(C)O)cc2)CC1` as the molecule, how does the EC50 read?
The EC50 was > 50 µM (inactive).

For `CCOC(=O)C1(Cc2ccccc2)CCCN(Cc2ccc(NC(C)=O)cc2)C1` (stereo not drawn), which EC50 is on record?
Its EC50 is > 50 µM (inactive).

For `CCOC(=O)C1(CC2CC2)CCN(C(=O)c2ccc(N3CCCCC3)cc2)CC1`, which EC50 is on record?
The EC50 was > 50 µM (inactive).

How did the EC50 turn out when `O=C(O)C1CCCCC1C(=O)Nc1ccc(CN2CCCCC2)cc1` (stereo not drawn) was run?
The EC50 was > 50 µM (inactive).

`CCOC(=O)C1(CCc2ccccc2)CCN(Cc2ccncc2)CC1` was tested. Which EC50 did it give?
Its EC50 is > 50 µM (inactive).

How did the EC50 turn out when `CCOC(=O)C1(CCc2ccccc2)CCN(Cc2ccc(C(=O)OC)cc2)CC1` was run?
Its EC50 is > 50 µM (inactive).

Which EC50 does the source give for `CCOC(=O)C1(CCc2ccccc2)CCN(Cc2ccc(OC)cc2)CC1` here?
Its EC50 is 0.206 µM.

For `CCOC(=O)C1CCN(Cc2ccc(NC(C)=O)cc2)CC1`, which EC50 is on record?
Its EC50 is > 50 µM (inactive).

`CCOC(=O)C1(Cc2cccc(OC)c2)CCCN(Cc2ccc(NC(C)=O)cc2)C1` (stereo not drawn) was tested. Which EC50 did it give?
The EC50 was > 50 µM (inactive).

`CCOC(=O)C1CCCCN1Cc1ccc(NC(C)=O)cc1` (stereo not drawn) was tested. Which EC50 did it give?
The EC50 was > 50 µM (inactive).

For `C=Cc1ccc(C(=O)N2CCC(CCCc3ccccc3)(C(=O)OCC)CC2)cc1`, which EC50 is on record?
Its EC50 is > 50 µM (inactive).

For `CCOC(=O)C1CCN(CCC(=O)Nc2ccc(C)cc2)CC1`, which EC50 is on record?
Its EC50 is > 50 µM (inactive).
